Source: a melting point compilation (Tetko et al.)

Structure (SMILES)	melting point [°C]
CN(C)C1CCN(c2ccc(N)cc2F)CC1	124 to 126
Nn1c(S)nnc1-c1ccccc1F	184 to 186
Cc1ccc(CO)cc1N	108 to 110
NN1C(=O)NC2(CCCCC2)C1=O	164 to 166
COCCNC(N)=S	118 to 120
O=C(O)c1c2c(nc3ccccc13)C(=Cc1ccc(Cl)c(Cl)c1)CC2	184 to 186
CC(C)(C)OC(=O)Nc1cc(Br)ccc1C(=O)O	179 to 181
CC(Cc1cccc(F)c1)(C(=O)O)C(=O)O	150 to 152
O=C(O)c1cccc(-n2nccc2C(F)(F)F)c1	158 to 160
Cc1nc(-c2ccccc2F)sc1C(C)O (centres undefined)	79 to 81
Nc1cn[nH]c(=O)c1Cl	299 to 301
Nc1cc2c(cc1N)OCC(=O)N2	252 to 254
NC(=O)Cn1ccc(N)n1	112 to 114
O=c1[nH]cnc2ccc(I)cc12	272 to 274
CC(C)Cc1ccc(C2(C)NC(=O)NC2=O)cc1 (centres undefined)	178 to 180
Cc1cc(C)cc(-n2nnnc2S)c1	164 to 166
COc1cc(OC)cc(N2CCC(N)C2=O)c1 (centres undefined)	88 to 90
Cc1c(C(=O)O)sc2nc[nH]c(=O)c12	248 to 252
C=CCC(NC(C)=O)C(=O)O (centres undefined)	114 to 116
O=C(O)c1cc(I)cc(C(F)(F)F)c1	182 to 184
O=C(O)C1CCCc2sccc21 (centres undefined)	79 to 81
O=C(O)c1ccc(COc2ccccc2)s1	134 to 136
Fc1cccc2[nH]c(C3CCNCC3)nc12	229 to 231
O=C(O)Cn1ccc(=O)c([N+](=O)[O-])c1	249 to 251

Structure (SMILES)	melting point [°C]
O=C(CCl)NCCc1c[nH]c2ccccc12	82 to 84
O=[N+]([O-])c1ccc(Oc2ccccc2Br)c(Cl)c1	86 to 88
NN1C(=O)CNC1=O	190 to 192
c1ccc(-c2cn[nH]c2)cc1	229 to 231
CC(C)(C)c1nc(CC(=O)O)cs1	94 to 96
Cc1cc2ncn(Cc3ccc(Cl)cc3)c2cc1C	143 to 145
CC(=O)c1cccc(S(=O)(=O)N(C)C)c1	74 to 76
O=S(=O)(Cl)c1ccc(S(=O)(=O)NC2CC2)cc1	126 to 128
O=C(O)C=Cc1csc(Br)c1	187 to 189
c1cc2c[nH]nc2cn1	104 to 106
CC(C)(C(=O)O)n1cc([N+](=O)[O-])cn1	121 to 123
CC(C)(F)c1nc(N)nc(Cl)n1	169 to 171
NC(=O)CCc1ccc(F)cc1	105 to 107
COc1cc(C=O)ccc1OCC#N	75 to 77
O=C(O)c1ccn(-c2ccccc2Cl)n1	187 to 189
CCc1sc(=O)[nH]c1-c1ccccc1	136 to 138
Nc1ccccc1-c1ccncc1	83 to 85
COc1ccc(Cl)cc1-n1cc(S(=O)(=O)Cl)cn1	89 to 91
O=C(O)c1ccc(-n2cnnn2)cc1	220 to 230
Cc1cc(N)ccc1C(N)=O	154 to 156
Cc1nc(Cl)c2c3c(sc2n1)CC(C)CC3 (centres undefined)	89 to 91
NS(=O)(=O)c1cc(F)cc(C(=O)O)c1Br	207 to 209
Cc1nn(C)c2nc(C3CC3)cc(C(=O)O)c12	242 to 244
Nc1nonc1-c1ccc(Cl)c(Cl)c1	143 to 145

Structure (SMILES)	melting point [°C]
NCC(O)c1ccccc1C(F)(F)F (centres undefined)	106 to 108
N#Cc1ccc2cc(C(=O)O)ccc2c1	279 to 281
CCOc1ccc(Nc2nc3ccccc3s2)cc1	169 to 171
O=C(O)c1cc2c(s1)-c1ccccc1OC2	236 to 238
O=C(O)C1(C(=O)Nc2ccc(F)cc2)CC1	179 to 181
Cc1cc(C(=O)CCl)c(C)n1-c1cccc(Br)c1	102 to 104
NNc1cncc(Cl)n1	137 to 139
N#CCC(=O)c1ccccc1F	51 to 53
C1CCc2nnc(C3CCCN3)n2CC1 (centres undefined)	91 to 93
N#CCc1ccnc(N)c1	104 to 106
O=C(O)c1cccc(S(=O)(=O)Cc2ccccc2)c1	214 to 216
N#Cc1ccccc1OCc1ccc(C(=O)O)o1	145 to 147
Clc1ccc2c(Cl)ccc(Cl)c2n1	85 to 87
CN1CCN(c2ccc(N)cc2Cl)CC1	127 to 129
Cc1cccc(C)c1NC(=O)C(=O)O	163 to 165
CC1CC1c1cc(N)n(-c2ccccc2)n1 (centres undefined)	92 to 94
COc1cc(C=O)c(-c2ccccc2)cc1OC	133 to 135
COC(=O)c1ccc(C(Br)Br)cc1	42 to 45
CC(Sc1ccc(Cl)cc1)C(=O)O (centres undefined)	106 to 108
O=c1[nH]c(CCl)nc2sc3c(c12)CCCC3	265 to 267
COc1ccc(CNc2cnn(C)c2)c(OC)c1	81 to 83
CC(C)(C)OC(=O)Nc1cccc(C(N)=NO)c1	168 to 170
O=C(NC1CC1)C(Cl)c1ccc(F)cc1 (centres undefined)	135 to 137
COc1cc(C(N)=S)ccn1	117 to 119

Structure (SMILES)	melting point [°C]
Nc1cccc(C(=O)Nc2cccc(C(F)(F)F)c2)c1	114 to 115
Cc1cc(CN2CCSCC2)ccc1N	106 to 108
O=C1C(Br)CCCN1c1ccccc1F (centres undefined)	54 to 56
CC(C)OC(=S)Nc1ccc(C#N)c(Cl)c1	156 to 158
Cc1nc(-c2c[nH]c(C(=O)O)c2)cs1	209 to 211
O=C(O)c1cc(S(=O)(=O)NC2CC2)ccc1Br	221 to 223
O=C(O)CCc1cccc([N+](=O)[O-])c1	111 to 113
N#Cc1cnn(-c2nccs2)c1N	165 to 167
Clc1cc(Cl)c(SSc2cc(Cl)c(Cl)cc2Cl)cc1Cl	140 to 144
CCOC(=O)COc1cccc(Br)c1	40 to 42
O=C(O)CCNS(=O)(=O)c1ccc(OC(F)(F)F)cc1	150 to 152
NCc1cc2c(cc1OC(F)F)OCO2	39 to 41
Nc1ncc(Cl)cc1S(N)(=O)=O	226 to 228
O=C(O)c1ccc2c(c1)ncn2Cc1ccccc1	102 to 104
Cc1[nH]c2c(F)cccc2c(=O)c1C	284 to 286
COc1cc(C(=O)O)ccc1NN	149 to 151
CN(C)C(=O)Nc1cccc(C(=O)O)c1	209 to 211
CC(C)N1CCC(C(=O)O)CC1	168 to 170
O=C(O)C=Cc1cc(Cl)cc(Cl)c1	130 to 134
CC1CCCC(C)N1C(=O)CCl (centres undefined)	71 to 73
Cc1ccc(S(=O)(=O)Nc2ccc(C(=O)O)cc2)cc1C	219 to 221
Cc1cc(C(=O)O)nn1C1CCCCC1	145 to 147
O=C(O)CN1C(=O)Cc2ccccc21	220 to 222
CC(=CC(=O)O)c1ccc(C(F)(F)F)cc1	122 to 124

Structure (SMILES)	melting point [°C]
N#CCC1C(=O)Nc2ccccc21 (centres undefined)	161 to 163
Cc1ccccc1OCc1nnc(S)[nH]1	110 to 112
Cc1nn(-c2ccc(F)cc2)c(C)c1C=O	128 to 130
O=c1[nH]c2ccccc2c(=O)n1CCCO	174 to 176
Nc1ccc(C(=O)NC2CC2)c(Cl)c1	158 to 160
O=C(O)c1cncn1-c1ccccc1	208 to 215
Cn1c(CCl)nc2ccccc2c1=O	179 to 181
Oc1ccnc(C2CC2)n1	152 to 154
CC(C)CC(=O)NC(C(=O)O)C(C)C (centres undefined)	186 to 188
CN(C)c1ccc2cc(N)ccc2n1	84 to 86
O=C(CCl)NCC1(c2ccccc2)CCC1	95 to 97
CN(CCS(=O)(=O)F)S(=O)(=O)c1ccc(F)cc1	129 to 131
Nc1nc2c(C(F)(F)F)cccc2s1	48 to 50
Oc1ccccc1C1=NCCN1	199 to 201
NNC(=O)c1ccc(NS(=O)(=O)c2cccs2)cc1	178 to 180
Cc1ncsc1NC(=O)OC(C)(C)C	136 to 138
O=C(O)c1cc2cccc(C(F)(F)F)c2[nH]1	179 to 181
N#Cc1cc(Cl)ccc1N=C=O	71 to 75
CC(C)(C)OC(=O)N(CC(=O)O)C1CC1	90 to 92
O=C(O)CSc1nnc(-c2ccccc2)n1-c1ccc(Cl)cc1	224 to 226
NS(=O)(=O)c1cc(Cl)c(Cl)c(C(=O)O)c1	237 to 239
CC(C)(C)c1nnc(CCl)o1	42 to 44
Cn1c(S)nnc1C1CCS(=O)(=O)C1 (centres undefined)	151 to 153
O=C(O)c1ccc2c(c1Cl)C(=O)c1ccccc1C2=O	199 to 201

Structure (SMILES)	melting point [°C]
Nc1cnccc1-n1ccnc1	134 to 136
Cc1nc(S(=O)(=O)NCC(=O)O)cn1C	217 to 219
O=C(O)CCc1nc(-c2ncccn2)no1	202 to 204
O=C(NCC1CCCC1)n1ccnc1	61 to 63
CN(C)S(=O)(=O)c1cccc(NC(=O)CCl)c1	74 to 78
Cc1ccc(C(=O)N2CCSCC2)cc1O	159 to 161
COC(=O)c1cccc(N)c1O	84 to 86
CC(NC(=O)CCl)c1ccc(F)cc1 (centres undefined)	71 to 73
COc1cc2nc(N3CCN(C(=O)C4COc5ccccc5O4)CC3)nc(N)c2cc1OC (centres undefined)	279 to 281
CNC(=O)COc1cccc(CC(=O)O)c1	128 to 130
Cc1ncc(N)s1	120 to 122
CC1(C)CCc2[nH]c(=O)c(C(=O)O)cc2C1	242 to 244
O=CN1CCN(S(=O)(=O)Cl)CC1	103 to 105
O=C(CSc1nnc(NCc2ccccc2)s1)NCC1CCCCC1	134 to 136
Cc1cc(NC(=O)C(C)Cl)ccc1Br (centres undefined)	149 to 151
O=C(O)CNC(=O)c1ccccc1Br	138 to 140
O=C(O)c1ccc(O)c2ccccc12	184 to 186
O=S1(=O)CCNCC12CCCCC2	99 to 101
Clc1cncc(N2CCOCC2)n1	114 to 116
Nc1nc2c(s1)CC(c1ccccc1)CC2 (centres undefined)	181 to 183
N#Cc1cnc2c(F)ccc(F)c2c1Cl	172 to 174
NC(=O)c1cccnc1NC1CCN(Cc2ccccc2)CC1	73 to 75
O=S(=O)(Cl)c1cnc(Cl)cc1Cl	79 to 81
Nc1cccc(C(=O)CCC(=O)O)c1	126 to 128
